Assay results published in paper PMC9019572, “Design, Synthesis, and Biological Evaluation of [1,2,4]triazolo[4,3-a] Pyrazine Derivatives as Novel Dual c-Met/VEGFR-2 Inhibitors” (Frontiers in Chemistry, 2022).
Where two headings read alike, the source gives them in different places.

Assays:
[1] = system: A549 cells; assay: MTT antiproliferative assay, A549; type: cell-based; details: Homo sapiens, 72 h;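 note: formazan read-out dissolved in DMSO, each compound assayed three times, IC50 computed with Bliss software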
Description: The cell lines used in the experiment were available from the Cell Culture Collection of Chinese Academy of Sciences (Shanghai Institutes for Biological Sciences, Chinese Academy of Sciences). […] The formazan crystals were dissolved in 100 µl of DMSO in each well. […] All compounds were tested three times in each of the cell lines. The results, expressed as inhibition rates or IC50 (half-maximal inhibitory concentration), were the averages of two determinations and calculated by using the Bacus Laboratories Incorporated Slide Scanner (Bliss) software.

[2] = system: MCF-7 cells; assay: MTT antiproliferative assay, MCF-7; type: cell-based; details: Homo sapiens, read-out: IC50 MCF-7
Description: (§1) The cell lines used in the experiment were available from the Cell Culture Collection of Chinese Academy of Sciences (Shanghai Institutes for Biological Sciences, Chinese Academy of Sciences). Referring to the previous experimental methods of our research, all cells were cultured in suitable medium such as DMEM or RPMI-1640 containing 10% fetal bovine serum at 37°C in 5% CO2 and propagated for 24 h. Then the compounds with different gradient concentrations were added into the medium and incubated for 72 h, and then MTT (thiazolyl blue tetrazolium bromide) with a concentration of 5 µg/ml was added to every well for 4 h at 37°C. The formazan crystals were dissolved in 100 µl of DMSO in each well. The absorbancy at 492 nm (for absorbance of MTT formazan) and 630 nm (for the reference wavelength) was measured with an ELISA reader. All compounds were tested three times in each of the cell lines. The results, expressed as inhibition rates or IC50 (half-maximal inhibitory concentration), were the averages of two determinations and calculated by using the Bacus Laboratories Incorporated Slide Scanner (Bliss) software.

[3] = system: Hela cells; assay: MTT antiproliferative assay, Hela; type: cell-based; details: Homo sapiens, 72 h, read-out: IC50 Hela
Description: as §1

[4] = biological target: c-Met kinase (Homo sapiens, UniProt P08581); assay: c-Met kinase inhibition assay; type: biochemical
Description: The kinase assay was performed by Pratzer Biotechnology Co. Ltd. (Changsha, China).

[5] = system: PC-9 cells; assay: Antiproliferative activity, PC-9; type: cell-based; details: Homo sapiens
Description: as §1

[6] = system: H460 cells; assay: Antiproliferative activity, H460; type: cell-based; details: Homo sapiens, NCI-H460
Description: as §1

[7] = system: H1975 cells; assay: Antiproliferative activity, H1975; type: cell-based; details: Homo sapiens, NCI-H1975
Description: as §1

Chain of c-Met kinase (P08581 25-1390): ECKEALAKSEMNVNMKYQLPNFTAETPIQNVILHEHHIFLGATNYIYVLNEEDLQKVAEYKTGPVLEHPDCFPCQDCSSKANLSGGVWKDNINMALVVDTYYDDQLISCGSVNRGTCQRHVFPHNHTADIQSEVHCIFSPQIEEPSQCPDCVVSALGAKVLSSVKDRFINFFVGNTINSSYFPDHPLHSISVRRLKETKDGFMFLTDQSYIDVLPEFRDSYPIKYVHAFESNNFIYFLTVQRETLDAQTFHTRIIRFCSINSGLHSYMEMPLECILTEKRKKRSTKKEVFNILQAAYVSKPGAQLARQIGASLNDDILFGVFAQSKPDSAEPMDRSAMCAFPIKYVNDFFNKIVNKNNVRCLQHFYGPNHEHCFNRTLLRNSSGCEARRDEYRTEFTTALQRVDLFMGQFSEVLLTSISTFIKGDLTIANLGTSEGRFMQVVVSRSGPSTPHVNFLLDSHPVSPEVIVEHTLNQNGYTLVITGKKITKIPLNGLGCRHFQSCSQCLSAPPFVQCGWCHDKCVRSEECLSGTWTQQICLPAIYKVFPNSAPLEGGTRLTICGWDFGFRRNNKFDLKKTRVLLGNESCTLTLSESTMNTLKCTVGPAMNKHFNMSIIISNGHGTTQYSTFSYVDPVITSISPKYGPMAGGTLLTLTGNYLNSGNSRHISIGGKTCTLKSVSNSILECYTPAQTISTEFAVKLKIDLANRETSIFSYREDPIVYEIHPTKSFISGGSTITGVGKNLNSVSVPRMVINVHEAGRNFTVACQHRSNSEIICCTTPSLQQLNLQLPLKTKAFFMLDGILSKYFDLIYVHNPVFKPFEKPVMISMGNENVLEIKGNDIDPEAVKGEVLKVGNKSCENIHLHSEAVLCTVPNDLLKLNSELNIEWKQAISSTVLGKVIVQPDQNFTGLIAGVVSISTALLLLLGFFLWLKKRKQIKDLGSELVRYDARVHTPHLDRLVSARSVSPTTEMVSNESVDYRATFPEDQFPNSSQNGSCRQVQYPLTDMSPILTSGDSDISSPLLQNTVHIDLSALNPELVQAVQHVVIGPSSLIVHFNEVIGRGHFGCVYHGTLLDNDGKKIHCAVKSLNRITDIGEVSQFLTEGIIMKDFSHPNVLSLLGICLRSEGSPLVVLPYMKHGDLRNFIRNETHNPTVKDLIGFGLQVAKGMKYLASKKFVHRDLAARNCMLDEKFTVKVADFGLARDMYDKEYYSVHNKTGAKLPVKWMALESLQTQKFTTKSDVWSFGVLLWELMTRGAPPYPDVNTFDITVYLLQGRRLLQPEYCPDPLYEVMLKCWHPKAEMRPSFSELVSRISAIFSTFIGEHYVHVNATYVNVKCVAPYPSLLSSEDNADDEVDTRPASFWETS

Structure (SMILES) | IC50 [1] | IC50 ([2]; MCF7, MTT, 72 h, MCF-7 cells) | IC50 ([3]; MTT, Hela cells) | IC50 [4] | melting point | IC50 ([2]; MCF7, 72 h) | IC50 ([3]; HeLa) | IC50 [5] | IC50 [6] | IC50 [7]
Cc1nc(-c2ccccc2)sc1C(=O)Nc1ccc(Oc2nccn3cnnc23)c(F)c1 [16 g] | 8.21 ± 0.65 µM | 9.17 ± 1.03 µM | 17.7 ± 1.29 µM | 0.658 µM | 278.1 to 282.7 °C |  |  |  |  | 
Cc1nc(-c2ccccn2)sc1C(=O)Nc1ccc(Oc2nccn3cnnc23)c(F)c1 [16 h] | 6.56 ± 0.42 µM | 8.18 ± 1.12 µM | 13.9 ± 1.59 µM | 0.437 µM | 203.4 to 207.6 °C |  |  |  |  | 
O=C(Nc1ccc(Oc2nccn3cnnc23)c(F)c1)c1cnn(-c2ccc(Cl)cc2)c1C(F)(F)F [16 k] | 6.18 ± 0.34 µM | 6.51 ± 0.63 µM | 12.9 ± 1.06 µM | 0.38 µM |  |  |  |  |  | 
Cc1nc(-c2ccccc2)sc1C(=O)Nc1ccc(Oc2nccn3cnnc23)cc1 [16a] | 12.4 ± 0.97 µM | 13.8 ± 1.23 µM | 21.5 ± 1.78 µM | 0.794 µM | 265.8 to 268.1 °C |  |  |  |  | 
Cc1nc(-c2ccccn2)sc1C(=O)Nc1ccc(Oc2nccn3cnnc23)cc1 [16b] | 6.46 ± 0.33 µM | 7.87 ± 0.42 µM | 12.2 ± 1.08 µM | 0.379 µM |  |  |  |  |  | 
Cc1nc(-c2ccncc2)sc1C(=O)Nc1ccc(Oc2nccn3cnnc23)cc1 [16c] | 5.58 ± 0.75 µM | 6.45 ± 0.81 µM | 14.3 ± 1.15 µM | 0.345 µM | 235.6 to 237.5 °C |  |  |  |  | 
O=C(Nc1ccc(Oc2nccn3cnnc23)cc1)c1cnn(-c2ccc(Cl)cc2)c1C(F)(F)F [16d] | 12.3 ± 0.98 µM | 11.5 ± 1.06 µM | 19.5 ± 1.94 µM | 0.722 µM | 261.3 to 263.5 °C |  |  |  |  | 
O=C(Nc1ccc(Oc2nccn3cnnc23)cc1)c1cc(-c2cccs2)n[nH]1 [16e] | 5.44 ± 0.42 µM | 7.13 ± 0.63 µM | 11.2 ± 0.96 µM | 0.342 µM |  |  |  |  |  | 
O=C(Nc1ccc(Oc2nccn3cnnc23)cc1)c1cc(-c2cccs2)no1 [16f] | 27.3 ± 0.86 µM | > 50 µM | > 50 µM | > 1 µM | 291.5 to 293.1 °C |  |  |  |  | 
Cc1nc(-c2cccnc2)sc1C(=O)Nc1ccc(Oc2nccn3cnnc23)c(F)c1 [16i] | 17.4 ± 0.97 µM | 19 ± 1.32 µM | 25 ± 2.17 µM |  |  |  |  |  |  | 
Cc1nc(-c2ccncc2)sc1C(=O)Nc1ccc(Oc2nccn3cnnc23)c(F)c1 [16j] | 3.26 ± 0.67 µM | 3.68 ± 0.34 µM | 6.17 ± 0.58 µM | 0.11 µM | 226.9 to 229.1 °C |  |  |  |  | 
O=C(Nc1ccc(Oc2nccn3cnnc23)c(F)c1)c1cc(-c2cccs2)no1 [16l] | 11.4 ± 0.76 µM | 12 ± 1.24 µM | 23.3 ± 2.12 µM | 0.725 µM |  |  |  |  |  | 
Cc1nc(-c2ccccc2)sc1C(=O)Nc1ccc(Oc2nccn3c(C)nnc23)c(F)c1 [17 g] |  |  |  |  | 299 to 302.1 °C |  |  |  |  | 
Cc1nc(-c2ccccn2)sc1C(=O)Nc1ccc(Oc2nccn3c(C)nnc23)c(F)c1 [17 h] | 3.56 ± 0.32 µM | 4.25 ± 0.76 µM | 7.43 ± 0.38 µM | 0.156 µM |  |  |  |  |  | 
Cc1nc(-c2ccc(F)cc2)sc1C(=O)Nc1ccc(Oc2nccn3c(C)nnc23)c(F)c1 [17 k] | 15.3 ± 0.51 µM | 18.2 ± 1.28 µM | 25.3 ± 2.4 µM |  |  |  |  |  |  | 
Cc1nnc2c(Oc3ccc(NC(=O)c4cc(-c5cccs5)no4)cc3F)nccn12 [17 m] | 8.84 ± 0.97 µM | 9.34 ± 1.03 µM | 17.4 ± 1.56 µM | 0.653 µM |  |  |  |  |  | 
Cc1nc(-c2ccccc2)sc1C(=O)Nc1ccc(Oc2nccn3c(C)nnc23)cc1 [17a] | 1.23 ± 0.13 µM | 1.43 ± 0.21 µM | 2.31 ± 0.29 µM | 0.055 µM |  |  |  |  |  | 
Cc1nc(-c2ccccn2)sc1C(=O)Nc1ccc(Oc2nccn3c(C)nnc23)cc1 [17b] | 4.31 ± 0.49 µM | 5.15 ± 0.72 µM | 9.46 ± 0.58 µM | 0.245 µM |  |  |  |  |  | 
Cc1nc(-c2ccncc2)sc1C(=O)Nc1ccc(Oc2nccn3c(C)nnc23)cc1 [17c] | 7.68 ± 0.71 µM | 8.79 ± 0.89 µM | 15.9 ± 1.1 µM | 0.532 µM | 270.7 to 273.8 °C |  |  |  |  | 
Cc1nc(-c2ccc(F)cc2)sc1C(=O)Nc1ccc(Oc2nccn3c(C)nnc23)cc1 [17d] | 5.21 ± 0.37 µM | 6.95 ± 0.67 µM | 10.7 ± 1.42 µM | 0.289 µM |  |  |  |  |  | 
Cc1nnc2c(Oc3ccc(NC(=O)c4cnn(-c5ccc(Cl)cc5)c4C(F)(F)F)cc3)nccn12 [17e] | 2.05 ± 0.19 µM | 1.74 ± 0.22 µM | 4.78 ± 0.43 µM | 0.077 µM |  |  |  |  |  | 
Cc1nnc2c(Oc3ccc(NC(=O)c4cc(-c5cccs5)n[nH]4)cc3)nccn12 [17f] | 5.73 ± 0.54 µM | 6.38 ± 0.85 µM | 12.4 ± 1.53 µM | 0.3 µM | 275.6 to 278.1 °C |  |  |  |  | 
Cc1nc(-c2cccnc2)sc1C(=O)Nc1ccc(Oc2nccn3c(C)nnc23)c(F)c1 [17i] | 188 µM | 25.4 ± 1.54 µM | > 50 µM |  | 220.7 to 223.1 °C |  |  |  |  | 
Cc1nc(-c2ccncc2)sc1C(=O)Nc1ccc(Oc2nccn3c(C)nnc23)c(F)c1 [17j] | 7.16 ± 0.45 µM | 7.31 ± 0.77 µM | 14.2 ± 1.64 µM | 0.45 µM |  |  |  |  |  | 
COc1cc2c(Oc3ccc(NC(=O)C4(C(=O)Nc5ccc(F)cc5)CC4)cc3F)ccnc2cc1OCCCN1CCOCC1 [Foretinib, foretinib, reference compound] |  |  |  |  |  | 0.93 ± 0.09 µM | 1.18 ± 0.25 µM |  |  | 
CNC(=O)c1cc(Oc2ccc(NC(=O)Nc3ccc(Cl)c(C(F)(F)F)c3)cc2)ccn1 [Sorafenib, sorafenib, reference compound] |  |  |  |  |  |  |  | 5.41 ± 0.73 µM | 5.27 ± 0.72 µM | 10.2 ± 1 µM
